Values quoted from earlier work in patent US8506932B2, “Tetracyclic indole derivatives as in vivo imaging agents and having peripheralbenzodiazepine receptor affinity (PBR)” (Hammersmith Imanet Limited, priority 2005, dated 2013).

Assays:
[1] = stated as known limitation
[2] = molecular target: PBR (Homo sapiens, UniProt P30536); conditions: stated as known limitation
PBR, sequence (P30536 whole entry, species assumed): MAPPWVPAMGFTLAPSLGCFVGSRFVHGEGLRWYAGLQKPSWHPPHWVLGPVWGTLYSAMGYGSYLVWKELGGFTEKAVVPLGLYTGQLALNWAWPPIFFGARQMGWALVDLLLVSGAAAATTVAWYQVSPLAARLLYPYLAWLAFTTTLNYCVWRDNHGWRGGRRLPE

**Q.** Which results are given for CC[C@@H](C)N([11CH3])C(=O)c1cc2ccccc2c(-c2ccccc2Cl)n1 [(R)-[11C]PK11195]?
**A.** protein binding [1]: high; specific to non-specific binding [2]: low
